Measured values reported in ChEMBL document CHEMBL2440076, “New triarylpyrazoles as broad-spectrum anticancer agents: design, synthesis, and biological evaluation” (Eur J Med Chem, 2013).

Columns and labels:
Format in all cases: functional
[1] = Growth inhibition of human NCI-ADR-RES cells assessed as cell growth at 3X10'-7 M after 48 hrs by sulforhodamine B assay; settings: read-out: Activity
OVCAR-4 = assay: Growth inhibition of human OVCAR4 cells assessed as cell growth at 3X10'-7 M after 48 hrs by sulforhodamine B assay; settings: OVCAR-4, 48 h, read-out: Activity
SK-MEL-5 [2] = assay: Growth inhibition of human SK-MEL-5 cells assessed as cell growth at 3X10'-7 M after 48 hrs by sulforhodamine B assay; settings: SK-MEL-5, 48 h, read-out: Activity
SNB-19 = assay: Growth inhibition of human SNB19 cells assessed as cell growth at 3X10'-7 M after 48 hrs by sulforhodamine B assay; settings: SNB-19, 48 h, read-out: Activity
SW-620 [3] = assay: Growth inhibition of human SW620 cells assessed as cell growth at 3X10'-7 M after 48 hrs by sulforhodamine B assay; settings: SW-620, 48 h, read-out: Activity
COLO 205 = assay: Growth inhibition of human COLO205 cells assessed as cell growth at 3X10'-7 M after 48 hrs by sulforhodamine B assay; settings: COLO 205, 48 h, read-out: Activity
NCI-H460 = assay: Growth inhibition of human NCI-H460 cells assessed as cell growth at 3X10'-7 M after 48 hrs by sulforhodamine B assay; settings: NCI-H460, 48 h, read-out: Activity
NCI-H322M = assay: Growth inhibition of human NCI-H322M cells assessed as cell growth at 3X10'-7 M after 48 hrs by sulforhodamine B assay; settings: read-out: Activity
NCI-H226 = assay: Growth inhibition of human NCI-H226 cells assessed as cell growth at 3X10'-7 M after 48 hrs by sulforhodamine B assay; settings: NCI-H226, 48 h, read-out: Activity
UO-31 [4] = assay: Growth inhibition of human UO31 cells assessed as cell growth at 3X10'-8 M after 48 hrs by sulforhodamine B assay; settings: UO-31, 48 h, read-out: Activity
TK-10 = assay: Growth inhibition of human TK10 cells assessed as cell growth at 3X10'-8 M after 48 hrs by sulforhodamine B assay; settings: TK-10, 48 h, read-out: Activity
ACHN = assay: Growth inhibition of human ACHN cells assessed as cell growth at 3X10'-8 M after 48 hrs by sulforhodamine B assay; settings: read-out: Activity
SF-268 = assay: Growth inhibition of human SF268 cells assessed as cell growth at 3X10'-8 M after 48 hrs by sulforhodamine B assay; settings: SF-268, 48 h, read-out: Activity
[5] = Growth inhibition of human HCC2998 cells assessed as cell growth at 3X10'-8 M after 48 hrs by sulforhodamine B assay; settings: HCC 2998, 48 h, read-out: Activity
HOP-92 = assay: Growth inhibition of human HOP92 cells assessed as cell growth at 3X10'-8 M after 48 hrs by sulforhodamine B assay; settings: HOP-92, 48 h, read-out: Activity
K562 = assay: Growth inhibition of human K562 cells assessed as cell growth at 3X10'-8 M after 48 hrs by sulforhodamine B assay; settings: K562, 48 h, read-out: Activity
UO-31 [6] = assay: Growth inhibition of human UO31 cells assessed as cell growth at 3X10'-5 M after 48 hrs by sulforhodamine B assay; settings: UO-31, 48 h, read-out: Activity
RXF 393 [7] = assay: Growth inhibition of human RXF393 cells assessed as cell growth at 3X10'-5 M after 48 hrs by sulforhodamine B assay; settings: RXF 393, 48 h, read-out: Activity
A498 [8] = assay: Growth inhibition of human A498 cells assessed as cell growth at 3X10'-5 M after 48 hrs by sulforhodamine B assay; settings: A498, 48 h, read-out: Activity
786-0 = assay: Growth inhibition of human 786-0 cells assessed as cell growth at 3X10'-5 M after 48 hrs by sulforhodamine B assay; settings: 786-0, 48 h, read-out: Activity
DU-145 = assay: Growth inhibition of human DU145 cells assessed as cell growth at 3X10'-9 M after 48 hrs by sulforhodamine B assay; settings: DU-145, 48 h, read-out: Activity
RXF 393 [9] = assay: Growth inhibition of human RXF393 cells assessed as cell growth at 3X10'-9 M after 48 hrs by sulforhodamine B assay; settings: RXF 393, 48 h, read-out: Activity
SNB-75 [10] = assay: Growth inhibition of human SNB75 cells assessed as cell growth at 3X10'-5 M after 48 hrs by sulforhodamine B assay; settings: SNB-75, 48 h, read-out: Activity
HT-29 = assay: Growth inhibition of human HT-29 cells assessed as cell growth at 3X10'-5 M after 48 hrs by sulforhodamine B assay; settings: HT-29, 48 h, read-out: Activity
MDA-MB-435 = assay: Growth inhibition of human MDA-MB-435 cells assessed as cell growth at 3X10'-9 M after 48 hrs by sulforhodamine B assay; settings: MDA-MB-435, 48 h, read-out: Activity
U-251 = assay: Growth inhibition of human U251 cells assessed as cell growth at 3X10'-9 M after 48 hrs by sulforhodamine B assay; settings: U-251, 48 h, read-out: Activity
SNB-75 [11] = assay: Growth inhibition of human SNB75 cells assessed as cell growth at 3X10'-9 M after 48 hrs by sulforhodamine B assay; settings: SNB-75, 48 h, read-out: Activity
[12] = Growth inhibition of human HCC2998 cells assessed as cell growth at 3X10'-9 M after 48 hrs by sulforhodamine B assay; settings: HCC 2998, 48 h, read-out: Activity
SR = assay: Growth inhibition of human SR cells assessed as cell growth at 3X10'-9 M after 48 hrs by sulforhodamine B assay; settings: read-out: Activity
A498 [13] = assay: Growth inhibition of human A498 cells assessed as cell growth at 3X10'-6 M after 48 hrs by sulforhodamine B assay; settings: A498, 48 h, read-out: Activity
OVCAR-5 = assay: Growth inhibition of human OVCAR5 cells assessed as cell growth at 3X10'-6 M after 48 hrs by sulforhodamine B assay; settings: OVCAR-5, 48 h, read-out: Activity
SK-MEL-5 [14] = assay: Growth inhibition of human SK-MEL-5 cells assessed as cell growth at 3X10'-6 M after 48 hrs by sulforhodamine B assay; settings: SK-MEL-5, 48 h, read-out: Activity
SW-620 [15] = assay: Growth inhibition of human SW620 cells assessed as cell growth at 3X10'-6 M after 48 hrs by sulforhodamine B assay; settings: SW-620, 48 h, read-out: Activity
KM12 = assay: Growth inhibition of human KM12 cells assessed as cell growth at 3X10'-6 M after 48 hrs by sulforhodamine B assay; settings: KM12, 48 h, read-out: Activity
HCT-15 = assay: Growth inhibition of human HCT15 cells assessed as cell growth at 3X10'-6 M after 48 hrs by sulforhodamine B assay; settings: HCT-15, 48 h, read-out: Activity
HOP-62 = assay: Growth inhibition of human HOP62 cells assessed as cell growth at 3X10'-6 M after 48 hrs by sulforhodamine B assay; settings: HOP-62, 48 h, read-out: Activity
MCF7 = assay: Growth inhibition of human MCF7 cells assessed as cell growth at 3X10'-7 M after 48 hrs by sulforhodamine B assay; settings: MCF7, 48 h, read-out: Activity

SMILES	growth at 0.3 µM [1]	growth at 0.3 µM (OVCAR-4)	growth at 0.3 µM (SK-MEL-5 [2])	growth at 0.3 µM (SNB-19)	growth at 0.3 µM (SW-620 [3])	growth at 0.3 µM (COLO 205)	growth at 0.3 µM (NCI-H460)	growth at 0.3 µM (NCI-H322M)	growth at 0.3 µM (NCI-H226)	growth at 0.03 µM (UO-31 [4])	growth at 0.03 µM (TK-10)	growth at 0.03 µM (ACHN)	growth at 0.03 µM (SF-268)	growth at 0.03 µM [5]	growth at 0.03 µM (HOP-92)	growth at 0.03 µM (K562)	growth at 30 µM (UO-31 [6])	growth at 30 µM (RXF 393 [7])	growth at 30 µM (A498 [8])	growth at 30 µM (786-0)	other results
COc1cc(-c2nn(-c3cccc(NC(=O)Nc4ccc(Cl)c(C(F)(F)F)c4)c3)cc2-c2ccncc2)ccc1Cl	98%	96%	87%	94%	100%	101%	101%	91%	85%	89%	102%	98%	103%	107%	74%	105%	-28%	-49%	-25%	-43%	growth at 0.003 µM (DU-145): 102%; growth at 0.003 µM (RXF 393 [9]): 98%; growth at 30 µM (SNB-75 [10]): -24%; growth at 30 µM (HT-29): -63%; growth at 0.003 µM (MDA-MB-435): 98%; growth at 0.003 µM (U-251): 97%; growth at 0.003 µM (SNB-75 [11]): 90%; growth at 0.003 µM [12]: 102%; growth at 0.003 µM (SR): 105%; growth at 3 µM (A498 [13]): 12%; growth at 3 µM (OVCAR-5): 49%; growth at 3 µM (SK-MEL-5 [14]): -5%; growth at 3 µM (SW-620 [15]): 17%; growth at 3 µM (KM12): 7%; growth at 3 µM (HCT-15): 18%; growth at 3 µM (HOP-62): 22%; growth at 0.3 µM (MCF7): 87%
COc1cc(-c2nn(-c3cccc(NC(=O)c4ccc(Cl)c(C(F)(F)F)c4)c3)cc2-c2ccncc2)ccc1Cl	91%	89%	93%	97%	91%	99%	98%	92%	84%	80%	93%	100%	94%	95%	85%	100%	11%	-11%	-9%	32%	growth at 0.003 µM (DU-145): 100%; growth at 0.003 µM (RXF 393 [9]): 99%; growth at 30 µM (SNB-75 [10]): -2%; growth at 30 µM (HT-29): 3%; growth at 0.003 µM (MDA-MB-435): 95%; growth at 0.003 µM (U-251): 96%; growth at 0.003 µM (SNB-75 [11]): 86%; growth at 0.003 µM [12]: 95%; growth at 0.003 µM (SR): 99%; growth at 3 µM (A498 [13]): 47%; growth at 3 µM (OVCAR-5): 88%; growth at 3 µM (SK-MEL-5 [14]): 24%; growth at 3 µM (SW-620 [15]): 55%; growth at 3 µM (KM12): 39%; growth at 3 µM (HCT-15): 50%; growth at 3 µM (HOP-62): 73%; growth at 0.3 µM (MCF7): 89%
O=C(Nc1cccc(-n2cc(-c3ccncc3)c(-c3ccc(Cl)c(O)c3)n2)c1)Nc1ccc(Cl)c(Cl)c1	102%	105%	90%	101%	101%	104%	95%	113%	94%	92%	103%	103%	92%	104%	93%	102%	7%	-37%	-26%	5%	growth at 0.003 µM (DU-145): 104%; growth at 0.003 µM (RXF 393 [9]): 96%; growth at 30 µM (SNB-75 [10]): -15%; growth at 30 µM (HT-29): 3%; growth at 0.003 µM (MDA-MB-435): 95%; growth at 0.003 µM (U-251): 98%; growth at 0.003 µM (SNB-75 [11]): 88%; growth at 0.003 µM [12]: 95%; growth at 0.003 µM (SR): 91%; growth at 3 µM (A498 [13]): -1%; growth at 3 µM (OVCAR-5): 42%; growth at 3 µM (SK-MEL-5 [14]): -73%; growth at 3 µM (SW-620 [15]): 23%; growth at 3 µM (KM12): 9%; growth at 3 µM (HCT-15): 14%; growth at 3 µM (HOP-62): 35%; growth at 0.3 µM (MCF7): 94%
O=C(Nc1cccc(-n2cc(-c3ccncc3)c(-c3ccc(Cl)c(O)c3)n2)c1)Nc1cccc(C(F)(F)F)c1	98%	108%	99%	96%	101%	109%	94%	98%	98%	85%	98%	101%	94%	97%	77%	92%	11%	-37%	15%	7%	growth at 0.003 µM (DU-145): 101%; growth at 0.003 µM (RXF 393 [9]): 96%; growth at 30 µM (SNB-75 [10]): 1%; growth at 30 µM (HT-29): 1%; growth at 0.003 µM (MDA-MB-435): 102%; growth at 0.003 µM (U-251): 100%; growth at 0.003 µM (SNB-75 [11]): 91%; growth at 0.003 µM [12]: 97%; growth at 0.003 µM (SR): 94%; growth at 3 µM (A498 [13]): 44%; growth at 3 µM (OVCAR-5): 97%; growth at 3 µM (SK-MEL-5 [14]): 17%; growth at 3 µM (SW-620 [15]): 53%; growth at 3 µM (KM12): 20%; growth at 3 µM (HCT-15): 27%; growth at 3 µM (HOP-62): 70%; growth at 0.3 µM (MCF7): 89%
O=C(Nc1cccc(-n2cc(-c3ccncc3)c(-c3ccc(Cl)c(O)c3)n2)c1)Nc1ccc(Cl)c(C(F)(F)F)c1	90%	94%	89%	98%	105%	101%	94%	95%	82%	95%	103%	98%	103%	102%	76%	105%	-28%	-49%	-49%	1%	growth at 0.003 µM (DU-145): 101%; growth at 0.003 µM (RXF 393 [9]): 101%; growth at 30 µM (SNB-75 [10]): -31%; growth at 30 µM (HT-29): -63%; growth at 0.003 µM (MDA-MB-435): 97%; growth at 0.003 µM (U-251): 98%; growth at 0.003 µM (SNB-75 [11]): 93%; growth at 0.003 µM [12]: 100%; growth at 0.003 µM (SR): 106%; growth at 3 µM (A498 [13]): 24%; growth at 3 µM (OVCAR-5): 33%; growth at 3 µM (SK-MEL-5 [14]): -81%; growth at 3 µM (SW-620 [15]): 5%; growth at 3 µM (KM12): 2%; growth at 3 µM (HCT-15): 4%; growth at 3 µM (HOP-62): 11%; growth at 0.3 µM (MCF7): 71%
